Values quoted from earlier work, collected in patent US20180280305A1 (Bayer HealthCare LLC, priority 2015, published 2018).

Settings: pain conditions, non-prescription (OTC) setting

COc1ccc2cc([C@H](C)C(=O)O)ccc2c1 [naproxen sodium]
lowest effective dose: 220 mg
